According to US9944700B2, “Notch2 binding molecules for treating respiratory diseases” (NOVARTIS AG, priority 2013, dated 2018):
Numbering of substitutions follows the chain as printed.

B1: FGF-7: secreted, recombinant human protein profiled in the bronchosphere assay (protein, UniProt P21781 32-194, looked up)
Fibroblast growth factor 7: CNDMTPEQMATNVNCSSPERHTRSYDYMEGGDIRVRRLFCRTQWYLRIDKRGKVKGTQEMKNNYNIMEIRTVAVGIVAIKGVESEFYLAMNKEGKLYAKKECNEDCNFKELILENHYNTYASAKWTHNGGEMFVALNQKGIPVRGKKTKKEQKTAHFLPMAIT
B2: IL-1a: secreted, recombinant human protein profiled in the bronchosphere assay (protein, UniProt P01583 113-271, looked up)
Interleukin-1 alpha: SAPFSFLSNVKYNFMRIIKYEFILNDALNQSIIRANDQYLTAAALHNLDEAVKFDMGAYKSSKDDAKITVILRISKTQLYVTAQDEDQPVLLKEMPEIPKTITGSETNLLFFWETHGTKNYFTSVAHPNLFIATKQDYWVCLAGGPPSITDFQILENQA
B3: IL-28A: secreted, recombinant human protein profiled in the bronchosphere assay (protein, UniProt Q8IZJ0 26-200, looked up)
Interferon lambda-2: VPVARLHGALPDARGCHIAQFKSLSPQELQAFKRAKDALEESLLLKDCRCHSRLFPRTWDLRQLQVRERPMALEAELALTLKVLEATADTDPALVDVLDQPLHTLHHILSQFRACIQPQPTAGPRTRGRLHHWLYRLQEAPKKESPGCLEASVTFNLFRLLTRDLNCVASGDLCV
B4: IL-28B: secreted, recombinant human protein profiled in the bronchosphere assay (protein, UniProt Q8IZI9 22-196, looked up)
Interferon lambda-3: B3 Interferon lambda-2 with H7R, R49K, H51R, M71V, V95G, F112L, Y135H

System: bronchospheres (human bronchial epithelial cells)
Experiment: Bronchosphere assay of secreted recombinant human proteins, qPCR of cell type markers and immunostaining
Type: cell-based
Settings: for change in expression of at least one cell-type marker, initial screen: 55 proteins tested at 3.3, 10 and 30 ng/mL; for expression of both of the ciliated cell markers: markers FOXJ1, DNAI2; for expression of at least two of the goblet cell markers: markers MUC5AC, MUC5B, FOXA3; for change in expression of at least one of the cell-type markers, on validation: expanded concentration range
Protocol: Human bronchial epithelial (HBE) cells and culture media were obtained from Lonza. Air-liquid interface cultures using passage 2 (P2) cells were performed as previously described (Danahay, H. et al., American journal of physiology. Lung cellular and molecular physiology 282, L226-236 (2002)). For three-dimensional culturing of HBE cells, P1 cells were trypsinized and resuspended (30,000 cells/ml) in HBE differentiation media containing 5% growth factor-reduced Matrigel (BD Biosciences). 20 μl of suspension was plated in each well of a 384-well plate (Greiner) pre-coated with 10 μl of a 25% solution of Matrigel (BD Biosciences) in HBE differentiation media. Wells were fed or treated at day 2 and day 8 of culture by adding 30 μl of differentiation media containing the appropriate treatment. Three-dimensional cultures were analyzed at the time points indicated.
Immunofluorescence of HBEC bronchospheres was performed as described previously for MCF10A cysts (Debnath, J. et al., Methods 30, 256-268 (2003) with the following modifications. After incubation with fluorescence-conjugated secondary antibodies, DNA was stained with a 1:1 mix of PBS and ProLong gold antifade containing DAPI. Confocal microscopy was performed at room temperature on a microscope (Zeiss LSM510 Meta) using an EC Plan-Neofluar 10×/0.30 dry objective (Zeiss), an EC Plan-Neofluor 20×/0.5 dry objective (Zeiss), a C-Apochromat 40×/1.2 W corr (Zeiss), or a C-Apochromat 63×/1.2 W Corr objective (Zeiss). Images were collected with Zen confocal software (Zeiss). Scale bars were added, and images were processed using Zen (Zeiss) and Photoshop (Adobe). Air-liquid interface (ALI) cultures were processed for immunofluorescence analysis after 14 days of culture at ALI by rinsing the apical surface of each filter with PBS, and then fixing in 4% paraformaldehyde for 4 hours. Filters were washed with IF buffer (130 mM NaCl, 7 mM Na2HPO4, 3.5 mM NaH2PO4, 7.7 mM NaN3, 0.1% bovine serum albumin, 0.2% Triton X-100, 0.05% Tween-20), blocked with IF wash containing 10% goat serum, and stained with primary antibody in IF wash containing 10% goat serum overnight at 4° C. Secondary antibodies were used at a 1:200 dilution in IF buffer containing 10% goat serum. To quantify the total staining area of ALI cultures, 10×13 images were collected with a plan Neofluar 10×0.3 NA Ph1 objective (EC; Carl Zeiss, Inc.) on a microscope (Axiovert 200; Carl Zeiss, Inc.) equipped with a motorized stage and a camera (Orca-ER-1394; Hamamatsu Photonics) controlled by Axiovision software (Carl Zeiss, Inc.) and used to generate a single composite image using the MOSAIX function in Zeiss Axiovision. Quantification of the total staining area was performed with ImageJ. Two to three regions of each ALI culture were punched out with a 4 mm biopsy punch (Miltex, Inc.) and mounted in ProLong gold antifade containing DAPI for imaging by confocal microscopy on a microscope (Axiovert 200; Carl Zeiss, Inc.) equipped with a motorized stage, a Yokogawa CSU-X1 spinning disc head, and an EMCCD camera (Evolve 512, Photometrics), with a Plan-Apochromat 100×/1.4 Oil DIC objective (Zeiss). Cells positive for MUC5AC, MUC5B, or cilia (acetylated α-Tubulin) staining were counted manually. For time-lapse video microscopy, HBECs were imaged at the indicated times during bronchosphere development at 37° C. with a plan Neofluar 10×0.3 NA Ph1 objective (EC; Carl Zeiss, Inc.). Images were taken every 5 min for the indicated time period. Annotations (time stamp and scale bar) were added and videos were assembled using Axiovision software.
RNA was isolated from 3D bronchosphere cultures with Trizol (Invitrogen), using manufacturer's specifications. To isolate RNA from mouse tissue, approximately 20 mg of tissue was placed in a 1.5 ml eppendorf tube with 1 ml of Buffer RLT Plus (Qiagen). A 5 mm stainless steel bead (Qiagen) was added to the tube, and the tissue was sheared using a Tissue Lyser II (Qiagen).

[1] = IL-13 treated bronchospheres, immunostaining, FIG. 2c
[2] = IL-13 treatment between days 2 and 14 after seeding, qPCR, FIG. 2a

Molecule	change in expression of at least one cell-type marker, initial screen	expression of both of the ciliated cell markers	expression of at least two of the goblet cell markers	change in expression of at least one of the cell-type markers, on validation	acetylated α-tubulin positive structures [1]	secreted mucins in the central lumen [1]	ciliated cell marker expression [2]	expression of markers of goblet cells [2]	concentrations toxic and disrupting bronchosphere formation (data not shown)	expression of MUC5B (bronchosphere assay)	effect on any of the other markers (markers other than MUC5B)
IL1-β: secreted, recombinant human protein profiled in the bronchosphere assay	concentration-dependent change	attenuated	enhanced	robust change	–	–	–	–	–	–	–
IFN-γ: secreted, recombinant human protein profiled in the bronchosphere assay	concentration-dependent change	attenuated	enhanced	robust change	–	–	–	–	–	–	–
IL-13: secreted, recombinant human protein (inflammatory cytokine) profiled in the bronchosphere assay	concentration-dependent change	attenuated	enhanced	robust change	lack	accumulation	declined	clear enhancement	> 3 ng/mL	–	–
B1	concentration-dependent change	–	–	–	–	–	–	–	–	enhanced	without affecting
B2	concentration-dependent change	attenuated	enhanced	robust change	–	–	–	–	–	–	–
B3	concentration-dependent change	attenuated	enhanced	robust change	–	–	–	–	–	–	–
B4	concentration-dependent change	attenuated	enhanced	robust change	–	–	–	–	–	–	–
